Measured values taken from ChEMBL document CHEMBL1817643, “Biochemical characterization of a novel type-II VEGFR2 kinase inhibitor: comparison of binding to non-phosphorylated and phosphorylated VEGFR2” (Bioorg Med Chem, 2011).

Assays:
[1] = molecular target: T1, Vascular endothelial growth factor receptor 2 (Homo sapiens, UniProt P35968); experiment: Inhibition of human N-terminal His-tagged phosphorylated VEGFR2 in presence of ATP measured without preincubation by AlphaScreen analysis
[2] = molecular target: T1, Vascular endothelial growth factor receptor 2; experiment: Inhibition of human N-terminal His-tagged non-phosphorylated VEGFR2 preincubated for 120 mins in presence of ATP by AlphaScreen analysis
[3] = molecular target: T1, Vascular endothelial growth factor receptor 2
[4] = molecular target: T1, Vascular endothelial growth factor receptor 2; experiment: Inhibition of human N-terminal His-tagged phosphorylated VEGFR2 preincubated for 120 mins in presence of ATP by AlphaScreen analysis
[5] = molecular target: T1, Vascular endothelial growth factor receptor 2; experiment: Binding affinity to human N-terminal His-tagged non-phosphorylated VEGFR2 assessed as dissociation rate constant by surface plasmon resonance analysis
[6] = molecular target: T1, Vascular endothelial growth factor receptor 2; experiment: Inhibition of human N-terminal His-tagged non-phosphorylated VEGFR2 after 10 mins by Global fit analysis
[7] = molecular target: T1, Vascular endothelial growth factor receptor 2; experiment: Inhibition of human N-terminal His-tagged non-phosphorylated VEGFR2 in presence of ATP measured without preincubation by AlphaScreen analysis
[8] = molecular target: T1, Vascular endothelial growth factor receptor 2; remark: listed apart in the source
Description: Binding affinity to human N-terminal His-tagged non-phosphorylated VEGFR2 assessed as association constant by surface plasmon resonance analysis

[9] = molecular target: T1, Vascular endothelial growth factor receptor 2; remark: listed apart in the source
Description: Inhibition of human N-terminal His-tagged non-phosphorylated VEGFR2 assessed as dissociation half life

[10] = molecular target: T1, Vascular endothelial growth factor receptor 2; remark: listed apart in the source
Description: Inhibition of human N-terminal His-tagged non-phosphorylated VEGFR2 assessed as dissociation half life after 60 mins by ligand displacement based enzyme-inhibitor dilution assay

[11] = molecular target: T1, Vascular endothelial growth factor receptor 2; experiment: Binding affinity to human N-terminal His-tagged non-phosphorylated VEGFR2 by surface plasmon resonance analysis
[12] = molecular target: T1, Vascular endothelial growth factor receptor 2; remark: listed apart in the source
Description: Inhibition of human N-terminal His-tagged phosphorylated VEGFR2 assessed as dissociation half life after 60 mins by ligand displacement based enzyme-inhibitor dilution assay

[13] = molecular target: T1, Vascular endothelial growth factor receptor 2; remark: listed apart in the source
[14] = molecular target: T1, Vascular endothelial growth factor receptor 2; experiment: Inhibition of human N-terminal His-tagged non-phosphorylated VEGFR2 after 60 mins by activity based 100 fold dilution assay
[15] = molecular target: T1, Vascular endothelial growth factor receptor 2; experiment: Inhibition of human N-terminal His-tagged non-phosphorylated VEGFR2 after 60 mins by ligand displacement based enzyme-inhibitor dilution assay

T1 sequence (P35968 whole entry): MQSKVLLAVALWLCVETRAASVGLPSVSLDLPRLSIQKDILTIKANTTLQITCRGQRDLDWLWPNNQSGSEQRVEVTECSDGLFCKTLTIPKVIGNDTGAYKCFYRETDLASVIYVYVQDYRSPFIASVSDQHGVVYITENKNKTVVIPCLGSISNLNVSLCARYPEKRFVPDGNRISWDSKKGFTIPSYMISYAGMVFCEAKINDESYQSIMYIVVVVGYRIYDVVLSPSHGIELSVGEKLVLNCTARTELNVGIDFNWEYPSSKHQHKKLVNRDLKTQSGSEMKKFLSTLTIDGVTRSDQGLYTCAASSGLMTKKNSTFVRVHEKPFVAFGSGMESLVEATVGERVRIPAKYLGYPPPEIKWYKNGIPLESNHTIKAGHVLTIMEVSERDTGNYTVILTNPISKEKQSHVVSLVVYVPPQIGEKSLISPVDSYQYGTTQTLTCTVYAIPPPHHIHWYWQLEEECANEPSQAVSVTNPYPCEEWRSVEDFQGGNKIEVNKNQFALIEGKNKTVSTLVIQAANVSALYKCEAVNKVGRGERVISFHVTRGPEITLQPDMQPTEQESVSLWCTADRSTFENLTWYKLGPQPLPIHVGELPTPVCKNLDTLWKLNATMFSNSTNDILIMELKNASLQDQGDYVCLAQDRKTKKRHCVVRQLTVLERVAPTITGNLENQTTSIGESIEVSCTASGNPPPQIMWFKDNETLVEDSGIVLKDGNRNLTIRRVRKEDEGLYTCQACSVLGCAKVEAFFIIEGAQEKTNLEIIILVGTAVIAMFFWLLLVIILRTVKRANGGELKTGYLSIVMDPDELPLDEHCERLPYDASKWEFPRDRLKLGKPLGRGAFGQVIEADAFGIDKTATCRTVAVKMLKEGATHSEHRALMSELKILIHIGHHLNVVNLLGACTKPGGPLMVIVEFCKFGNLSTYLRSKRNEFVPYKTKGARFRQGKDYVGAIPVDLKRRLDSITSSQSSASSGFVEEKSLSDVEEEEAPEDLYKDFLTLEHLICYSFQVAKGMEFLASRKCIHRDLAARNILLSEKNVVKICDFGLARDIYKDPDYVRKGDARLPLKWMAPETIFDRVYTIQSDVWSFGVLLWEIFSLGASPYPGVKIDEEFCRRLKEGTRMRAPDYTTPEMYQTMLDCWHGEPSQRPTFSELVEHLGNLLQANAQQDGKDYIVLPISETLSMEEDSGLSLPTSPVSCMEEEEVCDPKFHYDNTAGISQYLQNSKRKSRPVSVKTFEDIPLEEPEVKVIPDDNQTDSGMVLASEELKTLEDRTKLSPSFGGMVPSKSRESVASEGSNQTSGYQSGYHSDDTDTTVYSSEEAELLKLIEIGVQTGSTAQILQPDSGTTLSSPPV

| Compound | IC50 [1] | Ki [1] | IC50 [2] | T1/2 [3] | IC50 [4] | koff [5] | Ki [6] | IC50 [7] | Ka [8] | T1/2 [9] | T1/2 [10] | Kd [11] | T1/2 [12] | T1/2 [13] | Ki [14] | Ki [15] |
| --- | --- | --- | --- | --- | --- | --- | --- | --- | --- | --- | --- | --- | --- | --- | --- | --- |
| Cn1ccc2ncnc(Oc3ccc(NC(=O)Nc4cccc(C(F)(F)F)c4)c(F)c3)c21 | 46 nM | 23 nM | 0.033 nM | 260 min | 14 nM | 0.0031 s⁻¹ | 4.6 nM | 4.7 nM | 1.6 ×10⁵ /M/s | 1.3 min | 130 min | 19 nM | < 5 min | < 5 min | 0.024 nM | 0.044 nM |
| CN[C@@H]1C[C@H]2O[C@@](C)([C@@H]1OC)n1c3ccccc3c3c4c(c5c6ccccc6n2c5c31)C(=O)NC4 |  |  |  | < 5 min |  |  |  |  |  |  | < 5 min |  | < 5 min | < 5 min |  |  |
